Experimental data published in patent publication US10576151B2, “Ciclopirox for use in modulation of glucose homeostasis” (UNIVERSITY OF SOUTH CAROLINA, priority 2015, dated 2020).

How the values were obtained:
[1] = tested on: p21; test: p21 expression in the pancreas of mice that received CPX (immunoblot); type: in vivo; settings: wild type mice, oral CPX 0-25 mg/kg daily for 5 days; effect from as low as 5 mg/kg (FIG. 4)
Method: (§1) Western Blotting. The mouse islets were treated with CPX 20 μM for 24 h and lysed in RIPA buffer [50 mM Tris, pH 7.2; 150 mM NaCl; 1% sodium deoxycholate; 0.1% SDS; 1% Triton-X 100; 10 mM NaF; 1 mM Na3VO4; protease inhibitor cocktail (1:1000, Sigma, St. Louis, Mo.)] and were subjected to immunoblot analysis by standard methods. Proteins were resolved on a 10% SDS-PAGE and transferred to a nitrocellulose membrane (Bio-Rad, Hercules, Calif.). […] After incubation with enhanced chemiluminescence reagents (Santa Cruz biotechnology Inc.), membranes were analyzed using an Image J software for Windows. To determine if CPX treatment induces p21 levels in the pancreas, mice received orally CPX at 0-25 mg/kg daily for 5 days and the levels of p21 were assessed. […]

[2] = tested on: pancreatic islets; test: Islet survival under increasing glucose (glucotoxicity), CellTiter 96 AQueous One; type: cell-based, mice; settings: for protection from glucotoxicity (islet survival): increasing glucose
Method: Islet Isolation and Viability Assessment. Pancreatic islets were manually isolated from female C57BI/6 mice by the collagenase digestion method (Sigma-Aldrich; Li et al. 2009) and placed in a 96-well plate. The islets were incubated at 37° C. with 95% air and 5% CO2. Islets were manually picked after dithizone (DTZ; Sigma Chemical Co) staining. Before experiments were performed, the islet cells were incubated with extracellular Krebs-Ringer (KR) solution (Sigma-Aldrich) and with increasing amounts of glucose for 24 h and 48 h. Islet cell viability was assessed using CellTiter 96 AQueous One Solution Cell Proliferation Assay from Promega (Madison, USA). Islets from wt, p21-deficient, p53-deficient and CHOP-deficient mice were exposed to CPX at 20 μM for 24 h under increasing glucose amounts in the culture media, then they were let to recover for 48 h in normal glucose-containing media and their survival was assessed (FIG. 9). The 48 h recovery in normal media was deemed necessary because CPX, by inducing p21 expression would inflict cell cycle arrest in islets masking the effects of glucotoxicity. […] The p21-stimulatory activity of CPX in the islets is also p53-independent. […] Consistently with its pro-apoptotic role during ER stress CHOP ablation conferred resistance of islets to glucotoxicity (FIG. 10 at B).

[3] = tested on: p21; test: p21 stimulation in islets; type: cell-based, mice; settings: dependence on p53
Method: as §1, with “Islets from wt, p21-deficient, p53-deficient and CHOP-deficient mice were exposed to” for “To determine if”, “at 20 μM for 24 h under increasing glucose amounts” for “treatment induces p21 levels”, “culture media, then they were let to recover” for “pancreas, mice received orally CPX at 0-25 mg/kg daily”, “48 h in normal glucose-containing media” for “5 days”, “their survival was assessed (FIG. 9).” for “the levels of p21 were assessed.”

## Cc1cc(C2CCCCC2)n(O)c(=O)c1 [CPX, 6-cyclohexyl-1-hydroxy-4-methylpyridin-2(1H)-one]
[1]
  p21 expression in the pancreas: effectively stimulated the expression of p21
[2]; p21-deficient islets, CPX 20 μM 24 h then 48 h recovery (FIG. 10D)
  protection from glucotoxicity (islet survival): not p21-deficient animals
[2]; p53-deficient islets, CPX 20 μM 24 h then 48 h recovery (FIG. 10C)
  protection from glucotoxicity (islet survival): A similar trend was also found for p53
[2]; wt islets, CPX 20 μM 24 h then 48 h recovery (FIG. 10A)
  protection from glucotoxicity (islet survival): protected wt
[2]; wt islets, normal glucose, CPX 20 μM 24 h then 48 h recovery (FIG. 10A)
  islet growth: significantly inhibited islet growth
[3]
  p21-stimulatory activity in the islets: p53-independent
